How the values were obtained:
K562 leukemic cells = format: cell-based
Description: Final methyl cellulose concentration was 0.6%.

HL60 cells = assay: cells
Description: Assessment of cytotoxicity in HL60 and K562 cells by clonogenic assay. The assay used is based on Schweitzer et al (Exper. Hematol. 21: 573-578, 1993). HL60 or K562 cells were cultured in 96-well microplates, at 800 cells per well, in a medium of 0.6% methyl cellulose (Methocel A4M, Dow Chemicals, USA), 10% fetal calf serum, RPMI 1640 (Life Technologies Ltd, UK), and gentamycin (50 μg/ml, Biological Industries, Israel). Microculture wells received 10 μl of NAD, NADP, NADH, ADP-ribose, nicotinamide (NAM), or 3-acetyl pyridine adenine dinucleotide solutions within which the final concentrations were adjusted to be between 0-5000 μM after addition of 190 μl cell-containing medium. Final methyl cellulose concentration was 0.6%. […] In the case of the radiosensitization experiments, the cells were irradiated with 1-2 Gy gamma radiation 15 minutes before addition of NAD. The central area of the bottom of each well (25% of total) was counted, and the counts of colonies and clusters expressed as % of control in order to avoid influences from inter-experimental baseline variations.

[1] = system: HL60 (human promyeloid leukemia line) cells; assay: Measurement of in vitro cytotoxicity by apoptosis; format: cell-based
Description: Cell culture. HL60 (human promyeloid leukemia line) cells were cultured at a density of 0.5×106 to 1.0×10^6 cells/ml in RPMI medium supplemented with 10% fetal calf serum (FCS) at 37° C. in a 5% CO2 atmosphere. The cells were harvested by centrifugation and resuspended in fresh medium at a concentration of 1×106 to 2×10^6 cells/ml for bioassay purposes.
Measurement of in vitro cytotoxicity by apoptosis. HL60 cells were exposed in culture to 2 Gy radiation, 100 μM nMCA (neutral metoclopramide, Neu-Sensamide), 0-5000 μM NAD±10 mM, and±NADase inhibitor, 3-acetyl pyridine adenine dinucleotide, given 30 minutes before drug treatment. The % apoptosis was determined after 6 hours. The cytotoxicity was evaluated by morphological identification of apoptotic cells (400 ×magnification with phase contrast microscopy) using trypan blue exclusion (0.1% isotonic solution+5% serum) after 5 minutes incubation at room temperature. Apoptotic cells were identified as having chromatin condensation, shrinkage, membrane blebbing, fragmentation and appearance of “apoptotic bodies” (Kaufman et al, Cancer Res. 53:3976-3985, 1993).

[2] = system: human lung adenocarcinoma (H2981) xenograft; assay: Evaluation of antitumor activity of NAD in vivo; design: species or system Scid mice; details: NAD i.p. 25 or 50 mg/kg, 21 days
Description: Evaluation of antitumor activity of NAD in vivo. Scid mice (n=10 per group) were transplanted by subcutaneous injection of H-2981 (human adenocarcinoma) tumor tissue suspension in the right flank. When the tumors grew to 80-100 mm2, the animals were divided into three groups: Group 1 was injected i.p. with saline, Group 2 was injected i.p. with NAD at 25 mg/kg dissolved in saline, and Group 3 was injected i.p. with NAD at 50 mg/kg. The treatment schedule was daily Monday through Friday with no treatment Saturday and Sunday for 21 days. Tumor volumes were recorded every other day for 21 days and converted to AUC tumor growth values as previously described in detail (Hua et al, Anti-Cancer Drugs 6: 451-455, 1995).

Row | Structure (SMILES) | clonogenic cytotoxicity (number of colonies) (K562 leukemic cells) | clonogenic cytotoxicity (number of colonies) (HL60 cells) | also measured
1 | CC(=O)c1ccc[n+]([C@@H]2O[C@H](COP(=O)([O-])OP(=O)(O)OC[C@H]3O[C@@H](n4cnc5c(N)ncnc54)[C@H](O)[C@@H]3O)[C@@H](O)[C@H]2O)c1 [3-acetyl pyridine adenine dinucleotide, reference compound] | can nonetheless show cytotoxicity | can nonetheless show cytotoxicity | induction of apoptosis ([1]; % apoptosis after 6 hours, without NADase inhibitor): cannot induce cytoxicity by apoptosis
2 | Nc1ncnc2c1ncn2[C@@H]1O[C@H](COP(=O)(O)OP(=O)(O)OC[C@H]2OC(O)[C@H](O)[C@@H]2O)[C@@H](O)[C@H]1O (some centres unmarked) [ADP-ribose] | the same | equally effective at inducing cytotoxicity | –
3 | NC(=O)c1ccc[n+]([C@@H]2O[C@H](COP(=O)([O-])OP(=O)(O)OC[C@H]3O[C@@H](n4cnc5c(N)ncnc54)[C@H](O)[C@@H]3O)[C@@H](O)[C@H]2O)c1 [NAD, nicotinamide adenine dinucleotide] | the same | – | body weight loss or acute symptoms [2]: no significant body weight loss or acute symptoms; IC50 (HL60 cells; Homo sapiens, HL-60, 144 h, read-out: Doses that result in >50% inhibition of clonogenicity): < 500 µM
4 | NC(=O)C1=CN([C@@H]2O[C@H](COP(=O)(O)OP(=O)(O)OC[C@H]3O[C@@H](n4cnc5c(N)ncnc54)[C@H](O)[C@@H]3O)[C@@H](O)[C@H]2O)C=CC1 [NADH] | – | equally effective at inducing cytotoxicity | –
5 | NC(=O)c1cccnc1 [Nicotinamide, nicotinamide] | – | little to no effect on clonogenicity | –
6 | CCN(CC)CCNC(=O)c1cc(Cl)c(N)cc1OC [nMCA, neutral metoclopramide] | – | – | effect of NADase inhibitor on drug induced apoptosis ([1]; 10 mM 3-acetyl pyridine adenine dinucleotide given 30 minutes before drug, 6 hours): unaffected by the presence of the NADase inhibitor

From patent publication US6339073B1, “Uses of nicotinamide adenine dinucleotide and its derivatives for treatment of malignant and infectious diseases” (Oxigene, Inc., priority 1997, dated 2002)
